One compound from PMC7080406 (eLife, 2020) can be followed below.

“Also recorded” adds a separate entry of the source. Like-named read-outs stand apart in the source and are kept apart here.

Broadly, the inhibition is the percentage by which the read-out fell short of the control. A lower inhibition goes with a weak effect. What is called Emax is the size of the effect at its maximum, as opposed to the concentration needed.

One assay addresses T1, 5-HT1A (Homo sapiens, UniProt P08908).
T1 construct: expressed in transfected cells; host or cells: HEK293T, transient transfection (NIMH PDSP)
T1 sequence (P08908 1-422): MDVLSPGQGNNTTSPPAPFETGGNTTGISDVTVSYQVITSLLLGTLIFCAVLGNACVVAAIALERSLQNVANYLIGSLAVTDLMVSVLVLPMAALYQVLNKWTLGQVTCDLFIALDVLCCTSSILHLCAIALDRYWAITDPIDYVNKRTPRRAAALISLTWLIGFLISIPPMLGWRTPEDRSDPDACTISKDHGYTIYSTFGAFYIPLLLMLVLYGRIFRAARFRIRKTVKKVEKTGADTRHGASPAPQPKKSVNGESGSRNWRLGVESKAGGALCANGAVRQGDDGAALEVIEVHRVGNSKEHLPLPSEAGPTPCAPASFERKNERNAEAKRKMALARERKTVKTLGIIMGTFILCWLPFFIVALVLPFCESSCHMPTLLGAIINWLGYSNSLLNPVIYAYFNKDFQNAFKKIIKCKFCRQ
Nature of the assay: Off-target radioligand binding, 5-HT1A. As to the method: (§1) The Radioligand binding assays were conducted by the NIMH Psychoactive Drug Screening Program (PDSP). The NIMH PDSP is directed by Bryan L. Roth, MD, PhD, at the University of North Carolina at Chapel Hill, North Carolina, and Program Officer Jamie Driscoll at NIMH, Bethesda, MD. Binding assay procedures and protocols are also available online at http://pdspdb.unc.edu/pdspWeb/?site=assays. […] Assay plates were sealed and incubated for 4 hr at 37°C in a humidified incubator until harvesting. Plates were harvested using vacuum filtration onto 0.3% polyethyleneimine pre-soaked 96-well Filtermat A (PerkinElmer) and washed three times with cold wash buffer (50 mM Tris, pH 7.4). Filters were dried and melted with a scintillation cocktail (Meltilex, PerkinElmer). Radioactivity was counted using a Wallac TriLux Microbeta counter (PerkinElmer). Results were analyzed using GraphPad Prism 7.0.

The next assay concerns the target T2, 5-HT7A (Homo sapiens, UniProt P34969).
T2 construct: expressed in transfected cells; host or cells: HEK293T, transient transfection (NIMH PDSP)
The assay can be described thus: Gs-mediated cAMP production assay (GloSensor). The format is cell-based. Particulars: weak partial agonist; receptor not given. In general terms: cAMP levels reflect the balance of adenylyl cyclase and phosphodiesterase activity.

Assay [1] deals with T3, MT2 (Homo sapiens, UniProt P49286).
T3 sequence (P49286 1-362): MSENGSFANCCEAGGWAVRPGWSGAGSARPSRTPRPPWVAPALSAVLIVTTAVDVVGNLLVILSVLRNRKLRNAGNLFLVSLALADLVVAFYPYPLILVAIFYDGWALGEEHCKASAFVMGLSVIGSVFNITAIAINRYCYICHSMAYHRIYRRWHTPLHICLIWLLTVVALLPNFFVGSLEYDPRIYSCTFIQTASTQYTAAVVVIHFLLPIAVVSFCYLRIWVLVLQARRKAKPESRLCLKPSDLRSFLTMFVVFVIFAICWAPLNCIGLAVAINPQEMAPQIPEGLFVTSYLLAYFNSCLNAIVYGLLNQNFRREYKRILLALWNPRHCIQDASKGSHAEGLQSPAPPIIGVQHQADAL
Nature of the assay: Tango β-arrestin recruitment assay, MT2. In kind it is cell-based. Details: expressed in transfected cells; transient transfection. The following applies: result in words; compared to G-protein. The procedure: Tango arrestin recruitment assays were carried out according to the previously published procedure [Kroeze et al. (2015)]. In brief, HTLA cells were transiently transfected with receptor TANGO DNA constructs overnight in DMEM with 10% FBS. Transfected cells were then plated into poly-L-Lys coated 384-well plates using DMEM supplemented with 1% dialyzed FBS. After 6 hr incubation, drug dilutions, prepared in DMEM with 1% dFBS, were added for incubation overnight (16–20 hr). Medium and drug solutions were removed, Bright-Glo reagent (20 uL/well) was added for luminescence counting 20 min later. Results were analyzed in GraphPad Prism 7.0.
Background: Arrestin recruitment assays detect the binding of arrestin to an activated receptor.

Assay [2] has as its target T3, MT2. Nature of the assay: GloSensor Gi/o-mediated cAMP production inhibition assay, MT2. The format is cell-based. Particulars: for EC50: Gi/o mediated. Details: expressed in transfected cells; host or cells: HEK293T (ATCC CRL-11268), transient transfection. As to the method: (§2) Briefly, HEK293 T cells (as above) were transiently co-transfected with receptor (MT1 or MT2) and GloSensor cAMP (Promega) plasmids overnight, plated in Poly-L-Lysine coated 384-well white clear bottom plates in DMEM + 1% dialyzed FBS. Cells were used for assays at a minimum of 6 hr after plating. Culture medium was first removed and cells were stimulated with drugs in assay buffer (1x HBSS, 20 mM HEPES, 1 mg/ml BSA, 0.1 mg/ml ascorbic acid, pH 7.4) for 15 min at room temperature (this and all the following steps), followed by addition of a mixture of isoproterenol (final of 100 nM) and luciferin (final of 1 mM) for Gi/o-cAMP production inhibition assays and luciferin (final of 1 mM) for Gs-cAMP production assays. The plates were counted for luminescence after 25 min in a luminescence plate reader. Results were analyzed using GraphPad Prism 7.0.

Another assay deals with T4, MT1 (Homo sapiens, UniProt P48039).
T4 construct: expressed in transfected cells; host or cells: HEK293T (ATCC CRL-11268), transient transfection
Nature of the assay: GloSensor Gi/o-mediated cAMP production inhibition assay, MT1. The format is cell-based. Particulars: for EC50: Gi/o mediated. The procedure: as §2

Assay [3] addresses T3, MT2. Nature of the assay: [3H]melatonin competition radioligand binding, MT2 membranes. Details: expressed in transfected cells; host or cells: HEK293T (ATCC CRL-11268), transient transfection. Particulars: read-out: MT2 pKi ± SEM (converted). As to the method:
as §1

The target of assay [4] is T5, MT1 N162Q mutant receptor (Homo sapiens, UniProt P48039, N162Q).
T5 construct: expressed in transfected cells; host or cells: HTLA cells (HEKT based)
Nature of the assay: Tango β-arrestin recruitment assay, MT1 N162Q mutant. In kind it is cell-based. The following applies: normalized individually (basal 0%, maximum 100%); mean ± SEM, minimum of 3 assays; read-out: pEC50, Tango, MT1 N162Q (converted). The procedure: In brief, HTLA cells were transiently transfected with receptor TANGO DNA constructs overnight in DMEM with 10% FBS. Transfected cells were then plated into poly-L-Lys coated 384-well plates using DMEM supplemented with 1% dialyzed FBS. After 6 hr incubation, drug dilutions, prepared in DMEM with 1% dFBS, were added for incubation overnight (16–20 hr). Medium and drug solutions were removed, Bright-Glo reagent (20 uL/well) was added for luminescence counting 20 min later. Results were analyzed in GraphPad Prism 7.0.

Setting [5] is: ligand efficiency (based on EC50).

T4 sequence (P48039 whole entry): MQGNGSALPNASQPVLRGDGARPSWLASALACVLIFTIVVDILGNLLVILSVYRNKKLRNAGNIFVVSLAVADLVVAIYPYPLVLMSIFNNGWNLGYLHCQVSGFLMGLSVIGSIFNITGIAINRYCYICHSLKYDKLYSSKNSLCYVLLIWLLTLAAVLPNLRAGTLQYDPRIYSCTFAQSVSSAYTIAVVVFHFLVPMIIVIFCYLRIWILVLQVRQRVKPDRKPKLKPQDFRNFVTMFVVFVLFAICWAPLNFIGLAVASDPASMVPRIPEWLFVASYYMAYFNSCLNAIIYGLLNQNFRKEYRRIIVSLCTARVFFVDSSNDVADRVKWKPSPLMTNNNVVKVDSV
T2 sequence (P34969 1-445 isoform P34969-2): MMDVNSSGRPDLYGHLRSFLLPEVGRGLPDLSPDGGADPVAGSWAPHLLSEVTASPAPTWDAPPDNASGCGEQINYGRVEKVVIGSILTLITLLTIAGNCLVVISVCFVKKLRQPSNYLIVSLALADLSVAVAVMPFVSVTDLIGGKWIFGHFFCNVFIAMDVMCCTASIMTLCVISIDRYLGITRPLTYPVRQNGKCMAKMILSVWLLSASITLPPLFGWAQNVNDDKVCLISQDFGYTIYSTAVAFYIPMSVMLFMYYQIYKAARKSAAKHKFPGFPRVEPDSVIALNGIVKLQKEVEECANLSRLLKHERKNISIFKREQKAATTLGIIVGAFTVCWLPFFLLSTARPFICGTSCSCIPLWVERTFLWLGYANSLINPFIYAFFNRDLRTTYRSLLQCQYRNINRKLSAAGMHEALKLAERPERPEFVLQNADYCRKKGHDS
T5 sequence (P48039 whole entry N162Q): as the sequence (P48039 whole entry) above, with N162Q counted along it

For `COc1ccc2[nH]cc(CCNC(N)=O)c2c1` [Compound 28, [2-(5-methoxy-1H-indol-3-yl)ethyl]urea], the inhibition at 10 µM at 5-HT1A (10 μM) is > 50%. For the same compound, the Ki on 5-HT1A (read-out: pKi, 5-HT1A (converted)) is 851 nM; at MT2 [3], 23.4 nM. Besides, the EC50 was 1820 nM at 5-HT7A; 0.0447 nM on MT2 [2] (SEM, N = 3, read-out: MT2 pEC50 ± SEM (converted)); 0.04 nM at MT2 [2] (read-out: MT2 EC50); 0.0407 nM at MT1 (SEM, N = 3, read-out: MT1 pEC50 ± SEM (converted)); 0.04 nM at MT1 (read-out: MT1 EC50); 468 nM in assay [4]. For the same compound, on MT2 [1], the “β-arrestin signaling / arrestin recruitment at MT2” value was “dramatically reduced arrestin recruitment; also recorded: marked reduction in β-arrestin signaling compared to G-protein”. At MT2 [2] (Antilog (log(Emax/EC50) MT2 - log (Emax/EC50) MT1), values below 1 = MT1 selectivity), the “MT2/MT1 Selectivity” value is recorded as 0.7 fold. Also, the Emax was < 70% on MT2 [2] (MT2, activation compared to melatonin, read-out: MT2 Emax ± SEM) and 95.3 ± 2.6% at MT1 (read-out: MT1 Emax ± SEM). In addition, the “MT2 LE” value at MT2 [2] (setting [5]) was 0.85 kcal/mol per non-hydrogen atom. Also, the “MT1 LE” value on MT1 (setting [5]) was 0.86 kcal/mol per non-hydrogen atom.
